Data on 16 compounds can be found in ChEMBL document CHEMBL6114968, “Discovery of BW710 as a potent, selective and orally bioavailable fibroblast growth factor receptor 2 (FGFR2) inhibitor” (Eur J Med Chem, 2025).

pIC50: −log10 of the molar value.

For orientation: pIC50 means the negative decadic logarithm of the IC50, by convention in mol/L.

The subject of experiment [1] is BaF3. Briefly: Antiproliferative activity against mouse BaF3 cells incubated for 72 hrs by CCK-8 assay. The note with it: BaF3, 72 h.
Experiment [2] relates to BaF3. The experiment is described as follows: Antiproliferative activity against mouse BaF3 cells expressing FGFR1 incubated for 72 hrs by CCK-8 assay. The experiment is classed as functional, cell-based. The note with it: BaF3, 72 h.
Experiment [3] has as its system BaF3. The experiment is described as follows: Antiproliferative activity against mouse BaF3 cells expressing FGFR2 incubated for 72 hrs by CCK-8 assay. The note with it: BaF3, 72 h. Format: functional, cell-based. A general note: Tetrazolium assays rely on reduction of a dye to a coloured formazan, in cell work by metabolically active cells.
A short description of experiment [4]: Antiproliferative activity against FGFR2 amplified human KATO III stomach cancer cell line measured after 72 hrs by CCK-8 assay. The experiment is classed as functional, cell-based.
Experiment [5] is described as follows: Antiproliferative activity against human RT-112 cells harboring FGFR3-TACC3 measured after 72 hrs by CCK-8 assay. The experiment is classed as functional, cell-based. The note with it: RT-112, 72 h.
Experiment [6] deals with MDA-MB-453. The experiment is described as follows: Antiproliferative activity against human MDA-MB-453 cells harboring FGFR4-Y367C measured after 72 hrs by CCK-8 assay. Format: functional, cell-based. The note with it: MDA-MB-453, 72 h.
Experiment [7] relates to A204. Briefly: Antiproliferative activity against FGFR1 amplified human A204 cells measured after 72 hrs by CCK-8 assay. The experiment is classed as functional, cell-based. Particulars: A204, 72 h.
A short description of experiment [8]: Antiproliferative activity against FGFR2 amplified human SNU-16 cells measured after 72 hrs by CCK-8 assay. The note with it: SNU-16, 72 h. The experiment is classed as functional, cell-based.
Experiment [9] is described as follows: Selectivity ratio of IC50 for antiproliferative activity against mouse BaF3 cells expressing FGFR1 to IC50 for antiproliferative activity against mouse BaF3 cells expressing FGFR2. The experiment is classed as functional.

For the compound `C=CC(=O)Nc1ccc(-c2c(-c3ccc(S4(=O)=NCCCCC45CCC5)cc3)c3c(N)ncnc3n2C)cc1` (stereo not drawn), the figures for the negative-log IC50 (pIC50) in experiment [1], in [2] and in experiment [3] were less than 6.00, 6.76 and 8.82, respectively.
In the case of `C=CC(=O)Nc1ccc(-c2c(-c3ccc(S(=O)(CCC)=NC)cc3)c3c(N)ncnc3n2C)cc1` (stereo not drawn), the pIC50 in [1] was less than 6.00; in experiment [2], less than 6.00; in experiment [3], 7.45.
As to `C=CC(=O)Nc1ccc(-c2c(-c3ccc(S(=N)(=O)c4ccccc4)cc3)c3c(N)ncnc3n2C)cc1` (stereo not drawn), the results for the pIC50 in [1], in [2] and in [3] were less than 6.00, 6.36 and 8.06, respectively.
On to `C=CC(=O)Nc1ccc(-c2c(-c3ccc(S(=N)(=O)C4CCC4)cc3)c3c(N)ncnc3n2C)cc1` (stereo not drawn), for which the pIC50 in experiment [1] was less than 6.00; in experiment [2] it was less than 6.00; in experiment [3], 7.34.
On to `C=CC(=O)Nc1ccc(-c2c(-c3ccc(S(=N)(=O)C4CCCC4)cc3)c3c(N)ncnc3n2C)cc1` (stereo not drawn), for which the pIC50 is less than 6.00 in [1], 6.05 in experiment [2] and 8.18 in experiment [3].
In the case of `CCN1C(=O)N(c2c(F)c(OC)cc(OC)c2F)Cc2cnc3[nH]c(CN4CCOCC4)cc3c21` [PEMIGATINIB], the pIC50 is less than 6.00 in experiment [1]; 7.70 in experiment [2]; 8.74 in experiment [4]; 7.96 in experiment [5]; 6.82 in [6]; 8.70 in experiment [3]. The figures for the pIC50 in experiment [7] and in experiment [8] were 7.53 and 8.96, respectively.
Consider `C=CC(=O)Nc1ccc(-c2c(-c3ccc(S4(=O)=NCCC4)cc3)c3c(N)ncnc3n2C)cc1` (stereo not drawn), for which the negative-log IC50 (pIC50) is less than 6.00 in experiment [1], less than 6.00 in experiment [2] and 7.92 in experiment [3].
In the case of `C=CC(=O)Nc1ccc(-c2c(-c3ccc(S(C)(=O)=NCCC)cc3)c3c(N)ncnc3n2C)cc1` (stereo not drawn), the values for the pIC50 in experiment [1], in experiment [2] and in experiment [3] were less than 6.00, 6.08 and 7.05, respectively.
In the same order, the values of `C=C(C)C(=O)Nc1ccc(-c2c(-c3ccc(S4(=O)=NCCCCC4)cc3)c3c(N)ncnc3n2C)cc1F` (stereo not drawn) are less than 6.00, less than 6.00 and 6.97.
Regarding `C=C(C)C(=O)Nc1ccc(-c2c(-c3ccc(Oc4nccc(C)n4)c(F)c3)c3c(N)ncnc3n2C)cc1` [LIRAFUGRATINIB], the pIC50 was 6.31 in experiment [2] and 8.62 in experiment [3].
With `C=CC(=O)Nc1ccc(-c2c(-c3ccc(S(=O)(CC)=NC)cc3)c3c(N)ncnc3n2C)cc1` (stereo not drawn), the pIC50 in experiment [1] was less than 6.00; in [2] it was less than 6.00; in [3], 6.99.
With `C=CC(=O)Nc1ccc(-c2c(-c3ccc(S(=N)(=O)C4CCCCCC4)cc3)c3c(N)ncnc3n2C)cc1` (stereo not drawn), the pIC50 in experiment [1] was less than 6.00; in experiment [2], 6.47; in [3], 8.43.
Take `C=C(C)C(=O)Nc1ccc(-c2c(-c3ccc(S4(=O)=NCCCCC4)cc3)c3c(N)ncnc3n2C)cc1` (stereo not drawn): the pIC50 in experiment [1] is less than 6.00; in experiment [2], less than 6.00; in experiment [3], 7.84.
On to `C=CC(=O)Nc1ccc(-c2c(-c3ccc(S(=N)(=O)C4CCCCC4)cc3)c3c(N)ncnc3n2C)cc1` (stereo not drawn), for which the pIC50 is less than 6.00 in experiment [1], 6.10 in experiment [2] and 8.05 in experiment [3].
For the compound `C=CC(=O)Nc1ccc(-c2c(-c3ccc(S4(=O)=NCCCCC4)cc3)c3c(N)ncnc3n2C)cc1` (stereo not drawn), the pIC50 is less than 6.00 in experiment [1], 6.51 in [2] and 8.96 in experiment [3]. Also, the “Ratio IC50” value in experiment [9] is reported as more than 279.
With `C=CC(=O)Nc1ccc(-c2c(-c3ccc(S4(=O)=NCCCC4)cc3)c3c(N)ncnc3n2C)cc1` (stereo not drawn), the pIC50 was less than 6.00 in experiment [1], less than 6.00 in [2] and 7.92 in experiment [3].
